# In US20090142363A1, “CYTOTOXIC T-CELL EPITOPE PEPTIDE AND USE THEREOF” (priority 2005, published 2009):
# No end group written: not given here.
# System: CTL line induced by TYF (PBMCs from ID*24-8)
# Experiment: Cross-reactivity of the TYF-induced CTL line to the subgroup C-specific CTL epitope
# Format: cell-based, human
# From the text: As shown in FIG. 11-4, there are amino acid mutations at the fourth and sixth positions in TYF identified in the present invention as compared to the subgroup C-specific CTL epitopes. Thus, the cross-reactivity to subgroup C-specific CTL epitope ([…] (SEQ ID NO: 14); mutated amino acids are underlined) (Leen A M, Sili U, Vanin E F, Jewell A M, Xie W, Vignali D, Piedra P A, Brenner M K, Rooney C M. Conserved CTL epitopes on the adenovirus hexon protein expand subgroup cross-reactive and subgroup-specific CD8+ T cells. Blood. 104:2432-2440 (2004)) was examined using a CTL line induced by TYF.
# PBMCs prepared from ID*24-8 were stimulated with TYF for 13 days, and then restimulated with TYF or […] (SEQ ID NO: 14) to examine whether the CTL line produces IFNγ.
sequence,measurement,setting,value
TYFNLGNKF [TYF],cross-reactivity to subgroup C,,no cross-reactivity
same,IFNγ production of the CTL line induced by TYF on restimulation with the named peptide,PBMCs from ID*24-8 stimulated with TYF for 13 days,produced IFNγ in a TYF-specific manner
same,CD8-positive and TYF-Tet-positive cells,"PBMCs from ID*24-8 stimulated with TYF for 13 days, restimulated with the named peptide",1.22%
